Test results reported in PMC5854716, “Synthesis, molecular docking, ctDNA interaction, DFT calculation and evaluation of antiproliferative and anti-Toxoplasma gondii activities of 2,4-diaminotriazine-thiazole derivatives” (Medicinal Chemistry Research, 2018).
Values after ≈ are worked out from the molar mass of the structure shown.

How the values were obtained:
[1] = Cell viability assay (MTT), L929; assay type: cell-based, Mus musculus; conditions: mouse, L929 fibroblast cells
Summary of the method: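 L929 and VERO cells seeded at 1.0 × 10^4/well, attached 24 h, then exposed 24 h to compounds at 0.9–125.00 μg/ml (from DMSO stock). MTT (1 mg/ml) added for 2 h at 37 °C, formazan dissolved in DMSO, OD read at 550 nm. Viability expressed as percentage of 2.5% DMSO-treated controls; triplicate.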

[2] = test system: Toxoplasma gondii BK strain; test: T. gondii tachyzoite intracellular proliferation in VERO host cells ([3H]uracil incorporation); assay type: cell-based; conditions: Toxoplasma gondii, VERO host cells; for IC50: GraphPad Prism curves, read-out: IC50 (50% inhibition of T. gondii proliferation in vitro)
Summary of the method: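 VERO monolayers (2 × 10^4 cells/well) infected with 2 × 10^5 T. gondii tachyzoites/well in medium containing compounds at 0.9–125.00 μg/ml, with sulfadiazine at 5.0–2500.0 μg/ml as control, for 48 h at 37 °C. Growth measured by [3H]uracil incorporation over a further 18–20 h by scintillation counting, with host-cell-only cpm subtracted.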

Compound | viability at 24 h, 0.9 µg/ml [1] | viability at 24 h, 1.8 µg/ml [1] | viability at 24 h, 3.9 µg/ml [1] | viability at 24 h, 7.8 µg/ml [1] | viability at 24 h, 15.6 µg/ml [1] | viability at 24 h, 31.2 µg/ml [1] | viability at 24 h, 62.5 µg/ml [1] | activity at 0.9 µg/mL [2] | activity at 1.8 µg/mL [2] | activity at 3.9 µg/mL [2] | activity at 7.8 µg/mL [2] | activity at 15.6 µg/mL [2] | activity at 31.2 µg/mL [2] | IC50 [2] | viability at 24 h, 125 µg/ml [1] | activity at 62.5 µg/mL [2] | activity at 125 µg/mL [2]
C/C(=N\Nc1nc(-c2ccc(Cl)c(Cl)c2)cs1)c1ccc(Nc2nc(N)nc(N)n2)cc1 [Compound 4i, (E)-N^2-(4-(1-(2-(4-(3,4-dichlorophenyl)-1,3-thiazol-2-yl)hydrazinylidene)ethyl)phenyl)-1,3,5-triazine-2,4,6-triamine] | 101% | 97.9% | 96.1% | 100% | 98.1% | 108% | 100% | 101% | 102% | 79% | 55.9% | 45.7% | 41.1% | 14.9 µg/mL (≈ 30.7 µM) |  |  | 
C/C(=N\Nc1nc(-c2ccc(F)cc2)cs1)c1ccc(Nc2nc(N)nc(N)n2)cc1 [Compound 4a, (E)-N^2-(4-(1-(2-(4-(4-fluorophenyl)-1,3-thiazol-2-yl)hydrazinylidene)ethyl)phenyl)-1,3,5-triazine-2,4,6-triamine] | 96.6% | 101% | 105% | 99% | 102% | 111% | 115% | 102% | 101% | 101% | 108% | 99.1% | 77.6% | 51.6 µg/mL (≈ 119 µM) | 111% | 34.9% | 17.6%
C/C(=N\Nc1nc(-c2ccc(C)cc2)cs1)c1ccc(Nc2nc(N)nc(N)n2)cc1 [Compound 4c, (E)-N^2-(4-(1-(2-(4-(4-tolyl)-1,3-thiazol-2-yl)hydrazinylidene)ethyl)phenyl)-1,3,5-triazine-2,4,6-triamine] | 98.2% | 95.5% | 98.2% | 92.9% | 102% | 105% | 106% | 102% | 102% | 110% | 100% | 86.2% | 58.6% | 51.4 µg/mL (≈ 119 µM) | 118% | 40.1% | 30.9%
C/C(=N\Nc1nc(-c2ccc(I)cc2)cs1)c1ccc(Nc2nc(N)nc(N)n2)cc1 [Compound 4e, (E)-N^2-(4-(1-(2-(4-(4-iodophenyl)-1,3-thiazol-2-yl)hydrazinylidene)ethyl)phenyl)-1,3,5-triazine-2,4,6-triamine] | 96% | 97.6% | 99.1% | 88.8% | 98.8% | 108% | 109% | 103% | 104% | 99.9% | 92.8% | 80.7% | 75.1% | 49.2 µg/mL (≈ 90.5 µM) | 101% | 48.7% | 14.6%
